According to publication PMC7815716, “Mechanistic basis of breast cancer resistance protein inhibition by new indeno[1,2-b]indoles” (Scientific Reports, 2021):
Several values for one entry are separate records, joined by “and”; a condition that tells them apart may be missing. Identical values can stand only once. Like-named read-outs stand apart in the source and are kept apart here.

What was measured:
ABCG2 [1] = target: T1, ABCG2 (Homo sapiens, UniProt Q9UNQ0); test: Inhibition of ABCG2-mediated mitoxantrone efflux (flow cytometry); assay type: cell-based; set-up: expressed in transfected cells; host or cells: HEK293; settings: for inhibition at 30 min: human, probe mitoxantrone (10 µM), from IC50 fitted curves, HEK293-ABCG2, mitoxantrone, 100% = Ko143 0.5 µM, read-out: IMAX (%) ± SD, maximal inhibition percentage; for TR, therapeutic ratio (IG50/IC50): ratio between IG50 and IC50 values
T1 sequence (Q9UNQ0 1-655): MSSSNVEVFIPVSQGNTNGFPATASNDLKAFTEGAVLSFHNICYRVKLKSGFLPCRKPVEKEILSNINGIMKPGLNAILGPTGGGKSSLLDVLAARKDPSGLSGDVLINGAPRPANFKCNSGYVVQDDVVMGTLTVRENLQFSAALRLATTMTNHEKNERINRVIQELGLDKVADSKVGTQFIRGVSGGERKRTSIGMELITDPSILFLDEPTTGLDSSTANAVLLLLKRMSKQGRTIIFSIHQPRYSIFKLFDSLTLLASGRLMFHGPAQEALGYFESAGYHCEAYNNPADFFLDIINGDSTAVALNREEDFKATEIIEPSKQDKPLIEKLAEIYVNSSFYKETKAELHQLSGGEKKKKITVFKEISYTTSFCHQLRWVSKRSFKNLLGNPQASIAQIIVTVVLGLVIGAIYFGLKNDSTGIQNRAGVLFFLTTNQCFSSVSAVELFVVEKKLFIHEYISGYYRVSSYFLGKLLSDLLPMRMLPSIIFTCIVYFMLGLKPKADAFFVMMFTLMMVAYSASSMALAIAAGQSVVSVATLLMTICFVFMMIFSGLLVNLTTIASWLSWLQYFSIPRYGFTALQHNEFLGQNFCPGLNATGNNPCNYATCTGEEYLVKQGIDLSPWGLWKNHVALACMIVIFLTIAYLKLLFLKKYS
Procedure: ABCG2 inhibition assays were carried out on HEK293 WT and HEK293-ABCG2 cells. Cells were seeded at the density of 1 × 10^5 cells/well in 24 well culture plates and incubated for 48 h at 37 °C under 5% CO2. Cells were treated with compounds and 10 μM of mitoxantrone for 30 min at 37 °C and 5% CO2. After incubation the cells were washed with PBS, trypsinized and resuspended in ice cold PBS. The intracellular drug fluorescence was monitored with a FACS Calibur cytometer (Becton Dickinson) using the FL4 channel, with at least 10,000 events collected. The maximal fluorescence (taken as 100%) was determined with the difference between the mean fluorescence of HEK-ABCG2 cells incubated with 0.5 μM Ko143 (ABCG2 reference inhibitor) or by using the HEK293 WT cell line as a control and cells without inhibitor (mitoxantrone alone). The percent of inhibition was determined as previously described. For bimodulation assays the cells were concomitantly treated with 10 μM of one or two combined inhibitors under similar conditions as described previously. For washing assays, cells were treated with 10 μM concentrations of compounds for 30 min. Then, the medium with the inhibitor was removed and the cells were washed with PBS and incubated only with culture medium for different periods of time (0.5 and 3 h). After incubation, cells were exposed to 5 µM mitoxantrone for 30 min, and then analyzed by flow cytometry. The percentage of transport inhibition was calculated by the following equation: %Inhibition=C-S/I-S×100 where “C” corresponds to the intracellular fluorescence of cells in the presence of the tested compounds and substrate (mitoxantrone to ABCG2, Rhodamine 123 to ABCB1 and calcein to ABCC1), “S” corresponds to the intracellular fluorescence of cells in the presence of substrate alone, and “I” corresponds to the intracellular fluorescence of cells in the presence of the substrate and reference inhibitor (Ko143 to ABCG2, GF120918 to ABCB1 and verapamil to ABCC1).

[2] = Intrinsic cytotoxicity of compounds, MTT assay; assay type: cell-based, human; settings: human, HEK293 WT and HEK293-ABCG2 cells, MTT, read-out: IG50 (µM) ± SD, cytotoxicity (half-maximal cell viability)
Procedure: (§1) Cell viability was evaluated with a 3-(4,5-dimethylthiazol-2-yl)-2,5-diphenyltetrazolium bromide (MTT) colorimetric assay. HEK293 WT and HEK293-ABCG2 cells were seeded into 96-well culture plates at a 1.5 × 10^4 cells/well density. After overnight incubation, the cells were treated with various concentrations of compounds (0–100 µM) for 72 h at 37 °C under 5% CO2. […] Sensitization experiments were also carried out on H460 and H460MX20 cells. For these experiments, H460 and H460MX20 cells were seeded into 96-well culture plates at 1.0 × 10^4 cells/well density. […] After the treatment, the culture medium was removed and 100 μL of a 0.5 mg.mL^−1 MTT solution was added. Cells were then incubated for 4 h at 37 °C under 5% CO2. The formazan crystals were dissolved with a solution of DMSO/ethanol (1:1) and the absorbance was measured at 570 nm using a Multiscan FC microplate reader (Thermo Scientific). The results were expressed as percentage of viable cells versus control cells (0.1% DMSO, v/v) taken as 100%.

ABCG2 [3] = test system: ABCG2; set-up: method as in PMID 15930306; settings: cited from earlier work
ABCG2 [4] = settings: cited from earlier work
HEK293 WT cells = test: SN-38 cytotoxicity in control cells, MTT assay; assay type: cell-based, human
Procedure: as §1

ABCG2 [5] = target: T1, ABCG2; settings: previously published data, cited from earlier work
[6] = HEK293-ABCG2 cells, mitoxantrone 10 µM, 30 min, read-out: IC50 (µM) ± SD, inhibition of ABCG2-mediated mitoxantrone efflux

| SMILES | melting point [°C] | IC50 (ABCG2 [1]; [6]) [µM] | inhibition at 30 min (ABCG2 [1]; HEK293-ABCG2 cells) [%] | TR, therapeutic ratio (IG50/IC50) (ABCG2 [1]) | also measured |
| --- | --- | --- | --- | --- | --- |
| COc1ccccc1CCn1c2c(c3c1-c1ccccc1C3=O)C(=O)CC(C)C2 (centres unmarked) [5a, 5-(2-Methoxyphenethyl)-7-methyl-5,6,7,8-tetrahydroindeno[1,2-b]indole-9,10-dione] | 204 | 0.25 ± 0.01 | 72.5 ± 3.72 | > 393.60 | – |
| O=C1c2ccccc2-c2c1c1c(n2CCc2ccccc2)CCC(Cc2ccccc2)C1=O (centres unmarked) [5b, 8-Benzyl-5-phenethyl-5,6,7,8-hexahydroindeno[1,2-b]indole-9,10-dione] | – | 0.45 ± 0.1 | 113 ± 3.67 | 28.10 | – |
| COc1ccc2[nH]cc(CCn3c4c(c5c3-c3ccccc3C5=O)C(=O)CCC4)c2c1 [5c, 5-(2-(5-Methoxy-1H-indol-3-yl)ethyl)-5,6,7,8-tetrahydroindeno[1,2-b]indole-9,10-dione] | 279 | 0.65 ± 0.03 | 60 ± 4.04 | 56.41 | – |
| COc1cccc(CCn2c3c(c4c2-c2cc(O)ccc2C4=O)C(=O)CCC3)c1 [5d, 3-Hydroxy-5-(3-methoxyphenethyl)-5,6,7,8-tetrahydroindeno[1,2-b]indole-9,10-dione] | 222 | 2.71 ± 0.14 | 68.5 ± 0.68 | 9.85 | – |
| CC1CC(=O)c2c3c(n(CCc4ccccc4)c2C1)-c1cccc(O)c1C3=O (centres unmarked) [5f, 1-Hydroxy-7-Methyl-5-phenethyl-5,6,7,8-tetrahydroindeno[1,2-b]indole-9,10-dione] | 246 | 0.18 ± 0.02 | 48.4 ± 0.8 | 153.24 | – |
| CC1CC(=O)c2c3c(n(CCc4ccccc4)c2C1)-c1c(O)cccc1C3=O (centres unmarked) [5g, 4-Hydroxy-7-methyl-5-phenethyl-5,6,7,8-tetrahydroindeno[1,2-b]indole-9,10-dione] | 283 | 0.44 ± 0.03 | 65.2 ± 0.94 | 58.79 | – |
| COc1ccccc1CCn1c2c(c3c1-c1cccc(O)c1C3=O)C(=O)CCC2 [5h, 1-Hydroxy-5-(2-methoxyphenethyl)-5,6,7,8-tetrahydroindeno[1,2-b]indole-9,10-dione] | 173 | 0.42 ± 0.07 | 69.6 ± 1.14 | 57.21 | – |
| COc1ccccc1CCn1c2c(c3c1-c1cccc(O)c1C3=O)C(=O)CC(C)C2 (centres unmarked) [5i, 1-Hydroxy-7-methyl-5-(2-methoxyphenethyl)-5,6,7,8-tetrahydroindeno[1,2-b]indole-9,10-dione] | – | 0.07 ± 0.02 | 62.83 ± 0.48 | 293.66 | IC50 at 72 h [2]: 20 µM |
| COc1ccccc1CCn1c2c(c3c1-c1cccc(OCC=C(C)C)c1C3=O)C(=O)CCC2 [5j, 5-(2-Methoxyphenethyl)-1-(3-methylbut-2-enyloxy)-5,6,7,8-tetrahydroindeno[1,2-b]indole-9,10-dione] | 118 | 0.48 ± 0.08 | 85.6 ± 2.59 | 32.86 | – |
| COc1ccccc1CCn1c2c(c3c1-c1c(OCC=C(C)C)cccc1C3=O)C(=O)CCC2 [5k, 5-(2-Methoxyphenethyl)-4-(3-methylbut-2-enyloxy)-5,6,7,8-hexahydroindeno[1,2-b]indole-9,10-dione] | – | 0.92 ± 0.1 | 116 ± 2.36 | 22.85 | – |
| COc1ccccc1CCn1c2c(c3c1-c1cccc(OCC=C(C)C)c1C3=O)C(=O)CC(C)C2 (centres unmarked) [5l, 5-(2-Methoxyphenethyl)-7-methyl-1-((3-methylbut-2-enyl)oxy)-5,6,7,8-tetrahydroindeno[1,2-b]indole-9,10-dione] | – | 0.24 ± 0.03 | 82.3 ± 3.44 | 59.72 | – |
| COc1ccccc1CCn1c2c(c3c1-c1c(OCC=C(C)C)cccc1C3=O)C(=O)CC(C)C2 (centres unmarked) [5m, 5-(2-Methoxyphenethyl)-7-methyl-4-((3-methylbut-2-enyl)oxy)-5,6,7,8-hexahydroindeno[1,2-b]indole-9,10-dione] | – | 0.19 ± 0.07 | 87.4 ± 2.46 | 66.23 | – |
| CC(C)=CCOc1cccc2c1-c1c(c3c(n1CCc1ccccc1)CC(C)CC3=O)C2=O (centres unmarked) [5n] | – | 4.09 ± 0.56 | 133 ± 3.35 | 5.26 | – |
| CC(C)=CCc1c(O)cc2oc(-c3ccccc3)cc(=O)c2c1O [6-prenylchrysin] | – | – | – | – | Maximal inhibition of ABCG2 (ABCG2 [3]): approximately 70% |
| COc1cc2c(cc1OC)-c1c(c3c(O)cc(C)cc3n1CCc1ccccc1)C2=O [6e, 9-Hydroxy-2,3-dimethoxy-7-methyl-5-phenethylindeno[1,2-b]indol-10(5H)-one] | 198 | – | 66.8 ± 1.79 | 212.38 | IC50 (ABCG2 [1]): 0.2 ± 0.04 µM |
| COc1ccc2c3c([nH]c2c1)[C@H](CC(C)C)N1C(=O)[C@H](CCC(=O)OC(C)(C)C)NC(=O)[C@@H]1C3 [Ko143] | – | – | – | – | Effect on the ATPase activity of ABCG2 (ABCG2 [4]): inhibit the ATPase activity |
| CCc1c2c(nc3ccc(O)cc13)-c1cc3c(c(=O)n1C2)COC(=O)[C@]3(O)CC [SN-38] | – | – | – | – | FR, fold reversal (HEK293 WT cells; SN-38 alone (reference)): 1.00; IC50 (HEK293 WT cells; SN-38 alone, 72 h, read-out: IG50 (SN-38 nM ± SD)): 8.24 nM and 7.53 nM and 10 nM and 7.58 nM |
| O=C1c2c(O)ccc(O)c2C(=O)c2c(NCCNCCO)ccc(NCCNCCO)c21 [mitoxantrone] | – | – | – | – | Stimulation of the ATPase activity of ABCG2 (ABCG2 [4]): 40% |
| CC1CC(=O)c2c3c(n(CCc4ccccc4)c2C1)-c1ccccc1C3=O (centres unmarked) [p4h] | – | – | – | – | TR, therapeutic ratio (IG50/IC50) (ABCG2 [5]): > 435.00 |
| COc1ccccc1CCn1c2c(c3c1-c1ccccc1C3=O)C(=O)CCC2 [p4j] | – | – | – | – | TR, therapeutic ratio (IG50/IC50) (ABCG2 [5]): 130.00 |
| COc1cccc(CCn2c3c(c4c2-c2ccccc2C4=O)C(=O)CCC3)c1 [p4k] | – | – | – | – | TR, therapeutic ratio (IG50/IC50) (ABCG2 [5]): 41.00 |
| Cc1cc(O)c2c3c(n(CCc4ccccc4)c2c1)-c1ccccc1C3=O [p5h] | – | – | – | – | TR, therapeutic ratio (IG50/IC50) (ABCG2 [5]): 360.00; IC50 (ABCG2 [5]; read-out: IC50 (µM) ± SD, inhibition of ABCG2-mediated mitoxantrone efflux): 0.15 ± 0.01 µM |
| COc1cc2nc(N3CCN(C(=O)c4ccco4)CC3)nc(N)c2cc1OC [prazosin] | – | – | – | – | Stimulation of the ATPase activity of ABCG2 (ABCG2 [4]): 100% |
